Test [1] deals with biosynthesis of LTB4 in the air pouch. Briefly: Inflammation induced by carrageenan in the air pouch model in mice (LTB4 in exudate). Format: in vivo. The protocol: b) Inflammation induced by carrageenan in the air pouch model in mice
The air pouches are formed in mice according to Dawson et al. (Int. J. Tiss. React., 1991, XIII: 171). On day D, 5 ml of air are injected by the subcutaneous route into the back of the mice. On D+3, the pouch is maintained by reinjecting 3 ml of air. On D+6, either a cyclooxygenase inhibitor (indomethacin 5 mg/kg), or an LTA4 hydrolase inhibitor according to the invention (25 mg/kg), or the two in combination are administered by the oral route. After 1 h, 1 ml of 1% carrageenan is injected into the air pouch. The animals are sacrificed 4 h after the injection of carrageenan. The air pouche is washed with 1 ml of 50 mM potassium phosphate buffer containing 0.15 M NaCl, pH 7.4. The exudate is recovered and centrifuged at 10,000 g for 5 minutes. LTB4 is assayed in the supernatant by enzyme-linked immunoassay.

The subject of test [2] is oedema of the leg induced by Zymosan. Briefly: Oedema of the leg induced by Zymosan in mice. Format: in vivo. Particulars: oral route, 30 mg/kg, one hour before zymosan, sacrificed after 4 hours. The protocol:
a) Oedema of the leg induced by Zymosan in mice Zymosan is a polysaccharide of the yeast cell membrane. Injected into the leg of animals, it causes a local inflammatory reaction in the form of an oedema. One hour after administration of the inhibitor tested by the oral route to mice, at the dose of 30 mg/kg, 25 μl of zymosan (0.05% in 0.15 M NaCl) are injected into the left hind leg and 25 μl of physiological saline into the right leg as control. The animal is sacrificed after 4 hours, the legs cut at the ankle and weighed in order to evaluate the oedema developed.

For test [3], the target named is T1, LTA4 hydrolase activity in human whole blood (Homo sapiens, UniProt P09960).
T1 construct: from tissue; host or cells: human whole blood collected over sodium heparinate
T1 sequence (P09960 1-611): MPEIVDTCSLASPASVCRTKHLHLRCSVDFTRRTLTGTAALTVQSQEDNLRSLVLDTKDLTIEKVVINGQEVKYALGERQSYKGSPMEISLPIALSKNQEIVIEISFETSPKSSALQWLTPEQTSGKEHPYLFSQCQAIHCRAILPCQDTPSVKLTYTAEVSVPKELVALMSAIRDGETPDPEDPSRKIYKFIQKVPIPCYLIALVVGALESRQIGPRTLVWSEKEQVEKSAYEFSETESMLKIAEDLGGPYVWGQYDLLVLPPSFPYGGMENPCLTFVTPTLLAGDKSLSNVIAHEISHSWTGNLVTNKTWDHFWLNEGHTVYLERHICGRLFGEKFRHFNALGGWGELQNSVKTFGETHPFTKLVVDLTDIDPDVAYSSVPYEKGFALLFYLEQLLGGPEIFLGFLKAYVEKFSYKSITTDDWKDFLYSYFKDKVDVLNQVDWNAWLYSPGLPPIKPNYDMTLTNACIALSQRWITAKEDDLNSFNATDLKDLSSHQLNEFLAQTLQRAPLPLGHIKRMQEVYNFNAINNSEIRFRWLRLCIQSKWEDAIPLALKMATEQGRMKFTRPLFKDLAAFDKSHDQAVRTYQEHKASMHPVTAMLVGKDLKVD
Briefly: Inhibition of the biosynthesis of LTB4 in vitro in human whole blood. To be noted: LTA4 substrate, LTB4 by enzyme-linked immunoassay. In kind it is cell-based. The protocol:
2) Inhibition of the biosynthesis of LTB4 in vitro
The biosynthesis of LTB4 is measured in human whole blood in the presence of inhibitors of LTA4 hydrolase according to the invention. A 50 μl blood sample collected over sodium heparinate is preincubated for 10 minutes at 37° C. in the presence of inhibitor (50 mM Tris-HCl, 0.15 M NaCl, 10^−5 M DTT, pH 7.4).
The LTA4 substrate was freshly prepared by alkaline hydrolysis of LTA4 methyl ester (Cayman Chemical Co., USA). After incubating for 10 minutes in the presence of LTA4 (1 μm in 50 mM Tris-HCl, 0.15 M NaCl, 0.5% BSA, pH 7.4), the reaction is stopped by diluting 1/20 in 0.1 M potassium phosphate buffer containing 1.5 mM […], 0.4 M NaCl, 1 mM EDTA, 0.1% BSA, pH 7.4−4° C.
The LTB4 is assayed by enzyme-linked immunoassay (Cayman Chemical Co, USA).

The target of test [4] is T2, human recombinant LTA4 hydrolase (Homo sapiens, UniProt P09960).
T2 construct: made in house; host or cells: E. coli JM109
T2 sequence (P09960 1-611): T1 sequence (P09960 1-611)
Briefly: Inhibition of the aminopeptidase activity of recombinant LTA4 hydrolase (fluorimetric, Ala-AMC). Format: biochemical. To be noted: human recombinant enzyme, Ala-AMC 25 μM, DTT 10^−5 M, pH 7.4, 37° C. The protocol:
1) Inhibition of the aminopeptidase activity of recombinant LTA4 hydrolase
The compounds were tested using human recombinant LTA4 hydrolase (Minami et al., FEBS Letters, 1988, 229: 279). The LTA4 hydrolase expressed by E. coli JM109 is purified mainly according to Minami et al., (J. Biol. Chem., 1987, 262: 13873).
(§1) The inhibition of the aminopeptidase activity of the enzyme is measured by means of a fluorimetric method in 96-well microplates. The recombinant enzyme (0.5 μg in 50 μl of 50 mM Tris-HCl pH 7.4) is preincubated for 10 minutes at 37° C. in the presence of inhibitor and of dithiothreitol (DTT, 10^−5 M). The substrate alanyl-amido-methylcoumarin (Ala-AMC, 25 μM−Tris HCl 50 mM, pH 7.4) is added and the incubation is continued for 15 minutes at 37° C. The release of AMC is measured by fluorimetry.

The target of test [5] is T3, aminopeptidase M (EC 3.4.11.2) (Sus scrofa, UniProt P15145).
T3 construct: purchased Pierce, USA
T3 sequence (P15145 1-963): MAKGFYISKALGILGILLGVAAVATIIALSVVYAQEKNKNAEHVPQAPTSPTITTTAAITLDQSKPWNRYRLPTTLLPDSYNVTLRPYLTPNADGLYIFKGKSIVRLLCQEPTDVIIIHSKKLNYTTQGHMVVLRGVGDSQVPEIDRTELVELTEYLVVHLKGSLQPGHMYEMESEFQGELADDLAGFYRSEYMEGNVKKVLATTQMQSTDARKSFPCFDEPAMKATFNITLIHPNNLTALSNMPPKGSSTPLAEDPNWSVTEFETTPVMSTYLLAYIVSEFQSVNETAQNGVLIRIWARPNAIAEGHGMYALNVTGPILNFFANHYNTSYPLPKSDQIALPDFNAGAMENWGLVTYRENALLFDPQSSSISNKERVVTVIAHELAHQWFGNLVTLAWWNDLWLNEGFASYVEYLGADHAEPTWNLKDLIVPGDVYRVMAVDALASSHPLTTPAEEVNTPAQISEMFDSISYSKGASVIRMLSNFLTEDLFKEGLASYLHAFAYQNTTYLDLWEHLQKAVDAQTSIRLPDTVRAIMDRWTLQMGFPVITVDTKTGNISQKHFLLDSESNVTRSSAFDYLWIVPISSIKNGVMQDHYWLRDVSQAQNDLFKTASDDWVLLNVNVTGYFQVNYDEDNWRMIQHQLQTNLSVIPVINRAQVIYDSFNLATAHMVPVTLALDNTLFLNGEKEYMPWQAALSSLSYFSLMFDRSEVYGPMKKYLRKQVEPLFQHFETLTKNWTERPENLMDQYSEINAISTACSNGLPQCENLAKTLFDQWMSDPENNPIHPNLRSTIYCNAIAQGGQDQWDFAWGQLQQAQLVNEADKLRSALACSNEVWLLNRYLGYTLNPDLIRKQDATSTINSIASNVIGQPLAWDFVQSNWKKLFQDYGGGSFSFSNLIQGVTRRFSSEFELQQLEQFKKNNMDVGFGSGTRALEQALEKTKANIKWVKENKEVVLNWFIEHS
Briefly: Inhibition of membrane aminopeptidase M (same fluorimetric test). In kind it is biochemical. Particulars: 0.1 μg aminopeptidase M (Pierce). The protocol:
as §1
To evaluate the specificity of the compounds according to the invention, some of them were also tested for their capacity to inhibit the activity of membrane aminopeptidase M (EC 3.4.11.2). The same test is carried out with 0.1 μg of aminopeptidase M (Pierce, USA).

The subject of test [6] is biosynthesis of LTB4. Briefly: Inhibition of the biosynthesis of LTB4 ex vivo (mouse blood after oral dosing). To be noted: mice, blood collected thirty minutes later. In kind it is in vivo. The protocol: 3) Inhibition of the biosynthesis of LTB4 ex vivo
The compounds inhibiting LTA4 hydrolase according to the invention are suspended in 1.25% methyl cellulose and administered to mice by the oral route at the dose of 10 mg/kg. Thirty minutes later, the mice are sacrificed and the blood collected over lithium heparinate. The blood is then, as above, incubated for 10 minutes at 37° C. in the presence of LTA4 and then the LTB4 formed is assayed by enzyme-linked immunoassay.

The subject of test [7] is collagen-induced arthritis. Briefly: Collagen-induced arthritis in the rat (arthritis score). To be noted: score at 23rd day. Format: in vivo, rat "Dark Aganti". The protocol: c) Antiarthritic effect Collagen-induced arthritis was induced in the rat “Dark […]” according to the protocol by Kamada et al. (Jpn J. Pharmacol., 1997, 74: 313). The LTA4 hydrolase inhibitors are administered either “preventively” (starting from one day after the collagen), or curatively (during the first pathological manifestations, that is starting from 15 days after the collagen). […] The effect is-compared with that of indomethacin (1.5 mg/kg, p.o.).

Structures are written as SMILES. Structures can show the parent of a compound that is named as a salt.

As for `Cl.N[C@@H](CS)CCCCOc1ccccc1` (racemic) [Example 156, (R,S) -2-amino-6-phenoxy-1-hexanethiol hydrochloride], the “% LTB4 relative to the noninflamed control” value in test [1] (carrageenan + LTA4 hydrolase inhibitor 25 mg/kg oral, 4 h after carrageenan) is reported as −24%; in test [1] (carrageenan + indomethacin 5 mg/kg + inhibitor 25 mg/kg in combination, oral) it was −28%. In test [2], the “Inhibition (%) of oedema of the leg induced by Zymosan” value amounted to 35%. On to `NC(CS)CCOc1ccccc1` (racemic) [Example 172, (R,S)-2-amino-4-phenoxy-1-butanethiol hydrochloride], for which the Ki (usually a measure of affinity in units of concentration, obtained from inhibition or displacement) is 0.19 µM in test [3] and 0.015 µM in test [4]. In the case of `NC(CS)CCCCc1ccccc1` (racemic) [Example 173, (R,S)-2-amino-6-phenyl-1-hexanethiol hydrochloride], the Ki worked out at 0.2 µM in test [3], 0.2 µM in test [5] and 0.033 µM in test [4]. On to `Cl.N[C@@H](CS)CCCOc1ccccc1` (racemic) [Example 177, (R,S)-2-amino-5-phenoxy-1-pentanethiol hydrochloride], for which, in test [6] (10 mg/kg), the “Inhibition (%) of the biosynthesis of LTB4 ex vivo” value turned out to be 68%. On to `N[C@@H](CS)CSCc1ccccc1` [Example 23, (S)-2-amino-3-benzylthio-1-propanethiol hydrochloride], for which, in test [4], the Ki was found to be 0.062 µM.

Take `N[C@H](CS)COCc1ccccc1` [Example 24, (S)-2-amino-3-benzyloxy-1-propanethiol hydrochloride]: testing at 10 mg/kg in test [6] (Mus musculus) gave an inhibition of 28%. Consider `Cl.Cl.NC(CCCCOc1ccccc1)CSSCC(N)CCCCOc1ccccc1` [Example 229, 1,1-dithiobis(2-(R,S)-amino-6-phenoxyhexane) dihydrochloride], for which the Arthritis score in test [7] (curative (starting 15 days after collagen), 10 mg/kg i.p. twice/day) is on record as 0.38 ± 0.19; in test [7] (preventive (starting one day after collagen), 10 mg/kg i.p. twice/day), 0. For `COc1ccc2c(c1)c(CC(=O)O)c(C)n2C(=O)c1ccc(Cl)cc1` [indomethacin, reference compound], the “% LTB4 relative to the noninflamed control” value in test [1] (carrageenan + indomethacin 5 mg/kg oral, 4 h after carrageenan) was “+516%”. Moreover, in test [7] (curative, 1.5 mg/kg p.o.), the Arthritis score is reported as 1.35 ± 0.61.

Source of the values: patent publication US6436973B1, “LTA4 hydrolase inhibitors” (Bioprojet, priority 1998, dated 2002).
